Experimental data: ChEMBL document CHEMBL1136921, “Benzylguanidines and other galegine analogues inducing weight loss in mice” (J Med Chem, 2009)
The source made the active and inactive calls. The calls are words filed in the database; no cut-off is given here.

Key:
Mus musculus [1] = assay: Antiobesity activity in lean normal BALB/c mouse assessed as change in average daily food intake at 0.62 mmol/kg/day administered through diet for 7 days relative to time-matched control; type: functional
Mus musculus [2] = assay: Toxicity in lean normal BALB/c mouse assessed as overt signs of behavioural changes at equimolar dose of 0.5 mmol/kg galegine administered daily through diet for 7 days; type: organism-based; conditions: in vivo, po, 168 h
[3] = Metabolic stability in ob/ob mouse liver microsomes assessed as oxidative hydroxylation at 50 uM after 45 mins by HPLC-MS analysis; type: ADME, Microsome; conditions: 0.75 h
Mus musculus [4] = assay: Antiobesity activity in lean normal BALB/c mouse assessed as change in average daily weight at 0.62 mmol/kg/day administered through diet for 7 days relative to time-matched control; type: functional
Mus musculus [5] = assay: Antidiabetic activity in lean normal BALB/c mouse assessed as effect on blood lactate level at equimolar dose of 0.5 mmol/kg galegine administered daily through diet for 7 days; type: functional, organism-based
Mus musculus [6] = assay: Antiobesity activity in lean normal BALB/c mouse assessed as change in average daily weight at equimolar dose of 0.5 mmol/kg galegine administered daily through diet for 7 days; type: functional, organism-based
Mus musculus [7] = assay: Antiobesity activity in lean normal BALB/c mouse assessed as change in average daily food intake at equimolar dose of 0.5 mmol/kg galegine administered daily through diet for 7 days; type: functional, organism-based
Mus musculus [8] = assay: Hypoglycemic activity in lean normal BALB/c mouse assessed as blood glucose level at equimolar dose of 0.5 mmol/kg galegine administered daily through diet for 7 days; type: functional, organism-based
Mus musculus [9] = assay: Antiobesity activity in lean normal BALB/c mouse assessed as change in average daily weight at 0.52 mmol/kg/day administered through diet for 7 days relative to time-matched control; type: functional
Mus musculus [10] = assay: Antiobesity activity in lean normal BALB/c mouse assessed as change in average daily food intake at 0.52 mmol/kg/day administered through diet for 7 days relative to time-matched control; type: functional
Mus musculus [11] = assay: Hypoglycemic activity in lean normal BALB/c mouse assessed as blood glucose level at 0.52 mmol/kg/day administered through diet for 7 days relative to time-matched control; type: functional
Mus musculus [12] = assay: Antiobesity activity in lean normal BALB/c mouse assessed as change in average daily food intake at 0.70 mmol/kg/day administered through diet for 7 days relative to time-matched control; type: functional
Mus musculus [13] = assay: Hypoglycemic activity in lean normal BALB/c mouse assessed as blood glucose level at 0.70 mmol/kg/day administered through diet for 7 days relative to time-matched control; type: functional
Mus musculus [14] = assay: Antiobesity activity in lean normal BALB/c mouse assessed as change in average daily weight at 0.70 mmol/kg/day administered through diet for 7 days relative to time-matched control; type: functional
Mus musculus [15] = assay: Antiobesity activity in lean normal BALB/c mouse assessed as change in average daily food intake at 0.5 mmol/kg/day administered through diet for 7 days relative to time-matched control; type: functional
Mus musculus [16] = assay: Antiobesity activity in high fat diet-induced obese BALB/c mouse model assessed as change in average daily body weight at 0.38 mmol/kg/day administered through diet for 28 days relative to time-matched control; type: functional
Mus musculus [17] = assay: Hypoglycemic activity in lean normal BALB/c mouse assessed as blood glucose level at 0.5 mmol/kg/day administered through diet for 7 days relative to time-matched control; type: functional
Mus musculus [18] = assay: Hypoglycemic activity in ob/ob mouse model assessed as blood glucose level at 0.26 mmol/kg/day administered through diet for 28 days relative to time-matched control; type: functional
Mus musculus [19] = assay: Hypoglycemic activity in high fat diet-induced obese BALB/c mouse model assessed as blood glucose level at 0.38 mmol/kg/day administered through diet for 28 days relative to time-matched control; type: functional
Mus musculus [20] = assay: Antiobesity activity in ob/ob mouse model assessed as change in average daily food intake at 0.26 mmol/kg/day administered through diet for 28 days relative to time-matched control; type: functional
Mus musculus [21] = assay: Antiobesity activity in lean normal BALB/c mouse assessed as change in average daily weight at 0.5 mmol/kg/day administered through diet for 7 days relative to time-matched control; type: functional
Mus musculus [22] = assay: Antiobesity activity in high fat diet-induced obese BALB/c mouse model assessed as change in average daily food intake at 0.38 mmol/kg/day administered through diet for 28 days relative to time-matched control; type: functional
Mus musculus [23] = assay: Antiobesity activity in ob/ob mouse model assessed as change in average daily weight at 0.26 mmol/kg/day administered through diet for 28 days relative to time-matched control; type: functional

SMILES | Activity (Mus musculus [5]) | Activity (Mus musculus [6]) | Activity (Mus musculus [7]) | Activity (Mus musculus [8]) | also measured
[H]/N=C(/N)N/C(=N/[H])NCCc1ccccc1 [PHENFORMIN] |  |  |  |  | Activity (Mus musculus [1]): -3.4%; Activity (Mus musculus [2]): Non-toxic; Activity [3]: Unstable; Activity (Mus musculus [4]): -0.14%
CC(C)CCNC(=N)N | inactive | inactive | inactive | inactive | 
COc1cccc(CNC(=N)N)c1OC | inactive | inactive | inactive | inactive | 
CC(C)=CCNC1=NCCN1 | inactive | inactive | inactive | inactive | 
N=C(N)NCc1ccc(Br)cc1 |  |  |  |  | Activity (Mus musculus [9]): -23.3%; Activity (Mus musculus [10]): -36.7%; Activity (Mus musculus [2]): Non-toxic; Activity (Mus musculus [11]): 51%
COc1ccc(CNC(=N)N)cc1 | inactive | inactive | inactive | inactive | 
CC(C)=CCNc1ncccn1 | inactive | inactive | inactive | inactive | 
CC(C)=CCNC(=N)NC#N | inactive | inactive | inactive | inactive | 
N=C(N)NCc1ccc(C(F)(F)F)cc1 |  |  |  |  | Activity (Mus musculus [12]): -12.7%; Activity (Mus musculus [13]): 75%; Activity (Mus musculus [2]): Non-toxic; Activity (Mus musculus [14]): -10.6%
N=C(N)NCc1ccccn1 | inactive | inactive | inactive | inactive | 
CSCCCNC(=N)N | inactive | inactive | inactive | inactive | 
Cc1ccccc1CNC(=N)N | inactive | inactive | inactive | inactive | 
COc1ccc(CNC(=N)N)c(OC)c1 | inactive | inactive | inactive | inactive | 
COc1cccc(CNC(=N)N)c1 | inactive | inactive | inactive | inactive | 
N=C(N)NCc1ccccc1C(F)(F)F | inactive | inactive | inactive | inactive | 
COc1ccc(CNC(=N)N)cc1OC | inactive | inactive | inactive | inactive | 
N=C(N)NCC1CCCCC1 | inactive | inactive | inactive | inactive | 
CC(C)=CCNc1ccccn1 | inactive | inactive | inactive | inactive | 
CC(C)=CCN=C(N)N [GALEGINE] |  |  |  |  | Activity (Mus musculus [15]): -36.3%; Activity (Mus musculus [16]): -9%; Activity (Mus musculus [17]): 53%; Activity (Mus musculus [18]): 91%; Activity (Mus musculus [19]): 77%; Activity (Mus musculus [20]): -29.2%; Activity (Mus musculus [21]): -16.6%; Activity (Mus musculus [22]): -23.6%; Activity (Mus musculus [2]): Non-toxic; Activity (Mus musculus [23]): -7.3%
